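Assay format: 96-well plates, 48-hour exposure. GI50 = concentration required for 50% inhibition of growth.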 Calls of active or inactive are those of the source. Cut-off read from the data, not from the text of the source: active = GI50 up to about 1.1 µM and inactive = higher.
Columns and labels:
Experiment in all cases: NCI anticancer screen, dose series, 48 h
[1] = tested on: 786-0
[2] = tested on: A498
[3] = tested on: A549
[4] = tested on: ACHN
[5] = tested on: CCRF-CEM
[6] = tested on: COLO 205
[7] = tested on: DLD-1
[8] = tested on: DMS-114
[9] = tested on: DMS-273
[10] = tested on: EKVX
[11] = tested on: HCC 2998
[12] = tested on: HCT-116
[13] = tested on: HCT-15
[14] = tested on: HL-60
[15] = tested on: HOP-62
[16] = tested on: HOP-92
[17] = tested on: HT-29
[18] = tested on: IGROV-1
[19] = tested on: K562
[20] = tested on: KM-20L2
[21] = tested on: KM12
[22] = tested on: LOX IMVI
[23] = tested on: LXFL 529
[24] = tested on: M14
[25] = tested on: M19-MEL
[26] = tested on: MOLT-4
[27] = tested on: NCI-H226
[28] = tested on: NCI-H23
[29] = tested on: NCI-H460
[30] = tested on: NCI-H522
[31] = tested on: OVCAR-3
[32] = tested on: OVCAR-4
[33] = tested on: OVCAR-5
[34] = tested on: OVCAR-8
[35] = tested on: RPMI-8226
[36] = tested on: RXF 393
[37] = tested on: SF-268
[38] = tested on: SF-295
[39] = tested on: SF-539
[40] = tested on: SK-MEL-28
[41] = tested on: SK-MEL-2
[42] = tested on: SK-MEL-5
[43] = tested on: SK-OV-3
[44] = tested on: SN12C
[45] = tested on: SNB-19
[46] = tested on: SNB-75
[47] = tested on: SNB-78
[48] = tested on: SW-620
[49] = tested on: TK-10
[50] = tested on: U-251
[51] = tested on: UACC-62
[52] = tested on: UO-31
[53] = tested on: CAKI-1
[54] = tested on: Malme-3M
[55] = tested on: SR

With `COc1ccc(C(N)=O)c(OC)c1OCc1ccccc1` the GI50 [1] was > 100 µM (inactive), the GI50 [2] was > 100 µM (inactive) and the GI50 [3] was > 100 µM (inactive). The GI50 [4] was > 100 µM (inactive), the GI50 [5] was > 100 µM (inactive) and the GI50 [6] was > 100 µM (inactive). The GI50 [7] was > 100 µM (inactive), the GI50 [8] was > 100 µM (inactive) and the GI50 [9] was > 100 µM (inactive). For the same compound, the GI50 [10] was > 100 µM (inactive), the GI50 [11] was > 100 µM (inactive) and the GI50 [12] was > 100 µM (inactive). The GI50 [13] was greater than 100 µM, the GI50 [14] was > 100 µM (inactive) and the GI50 [15] was > 100 µM (inactive). For the same compound, the GI50 [16] was > 100 µM (inactive), the GI50 [17] was > 100 µM (inactive) and the GI50 [18] was > 100 µM (inactive). For the same compound, the GI50 [19] was > 100 µM (inactive), the GI50 [20] was > 100 µM (inactive) and the GI50 [21] was > 100 µM (inactive). The GI50 [22] was > 100 µM (inactive), the GI50 [23] was > 100 µM (inactive) and the GI50 [24] was > 100 µM (inactive). The GI50 [25] was > 100 µM (inactive), the GI50 [26] was > 100 µM (inactive) and the GI50 [27] was > 100 µM (inactive). The GI50 [28] was 9.51 µM (inactive), the GI50 [29] was > 100 µM (inactive) and the GI50 [30] was 12.4 µM (inactive). The GI50 [31] was > 100 µM (inactive), the GI50 [32] was > 100 µM (inactive) and the GI50 [33] was > 100 µM (inactive). The GI50 [34] was > 100 µM (inactive), the GI50 [35] was > 100 µM (inactive) and the GI50 [36] was 0.15 µM (active). For the same compound, the GI50 [37] was > 100 µM (inactive), the GI50 [38] was > 100 µM (inactive) and the GI50 [39] was > 100 µM (inactive). The GI50 [40] was > 100 µM (inactive), the GI50 [41] was > 100 µM (inactive) and the GI50 [42] was > 100 µM (inactive). The GI50 [43] was > 100 µM (inactive), the GI50 [44] was > 100 µM (inactive) and the GI50 [45] was > 100 µM (inactive). For the same compound, the GI50 [46] was > 100 µM (inactive), the GI50 [47] was > 100 µM (inactive) and the GI50 [48] was > 100 µM (inactive). For the same compound, the GI50 [49] was > 100 µM (inactive), the GI50 [50] was > 100 µM (inactive) and the GI50 [51] was > 100 µM (inactive). For the same compound, the GI50 [52] was > 100 µM (inactive).
`COc1cc(C)c2c(c1)CN1CN2Cc2cc(OC)cc(C)c21` was tested, and the GI50 [1] was 74.1 µM (inactive), the GI50 [3] was 96.4 µM (inactive) and the GI50 [4] was 37.8 µM (inactive). For the same compound, the GI50 [53] was > 100 µM (inactive), the GI50 [5] was 65.6 µM (inactive) and the GI50 [6] was 57 µM (inactive). The GI50 [7] was 31.4 µM (inactive), the GI50 [8] was 21.5 µM (inactive) and the GI50 [9] was 38.2 µM (inactive). For the same compound, the GI50 [10] was 32.7 µM (inactive), the GI50 [12] was 47.9 µM (inactive) and the GI50 [13] was 34.8 µM. The GI50 [14] was 21.4 µM (inactive), the GI50 [15] was 65.6 µM (inactive) and the GI50 [16] was 35.3 µM (inactive). For the same compound, the GI50 [17] was 74.8 µM (inactive), the GI50 [18] was 97.1 µM (inactive) and the GI50 [19] was 46.9 µM (inactive). For the same compound, the GI50 [21] was 58.2 µM (inactive), the GI50 [22] was 66.2 µM (inactive) and the GI50 [23] was 60 µM (inactive). For the same compound, the GI50 [24] was > 100 µM (inactive), the GI50 [25] was 38.9 µM (inactive) and the GI50 [26] was 45 µM (inactive). The GI50 [54] was 67.9 µM (inactive), the GI50 [27] was 49.5 µM (inactive) and the GI50 [28] was 45.8 µM (inactive). The GI50 [29] was 64.6 µM (inactive), the GI50 [30] was > 100 µM (inactive) and the GI50 [31] was 25.5 µM (inactive). For the same compound, the GI50 [32] was 32.8 µM (inactive), the GI50 [33] was 27.9 µM (inactive) and the GI50 [34] was 85.7 µM (inactive). The GI50 [35] was 43.8 µM (inactive), the GI50 [37] was 48.1 µM (inactive) and the GI50 [38] was 52.4 µM (inactive). For the same compound, the GI50 [39] was > 100 µM (inactive), the GI50 [41] was 45.6 µM (inactive) and the GI50 [42] was 3.66 µM (inactive). For the same compound, the GI50 [43] was > 100 µM (inactive), the GI50 [44] was 46.3 µM (inactive) and the GI50 [45] was < 0.01 µM (active). The GI50 [46] was 11.2 µM (inactive), the GI50 [47] was 56.8 µM (inactive) and the GI50 [55] was 36.1 µM (inactive). The GI50 [48] was > 100 µM (inactive), the GI50 [50] was 50.6 µM (inactive) and the GI50 [51] was 29.9 µM (inactive). The GI50 [52] was 33.1 µM (inactive).

— ChEMBL document CHEMBL1201862, “PubChem BioAssay data set” (2004)
